Assay results reported in ChEMBL document CHEMBL1201861, “Genomics of Drug Sensitity in Cancer screening data, Wellcome Trust Sanger Institute”.

What was measured:
Test in all cases: cells
NB13 = format: functional, cell-based, Homo sapiens; details: Homo sapiens, NB13
Description: SANGER: Inhibition of human NB13 cell growth in a cell viability assay.

TE-6 = format: functional, cell-based, Homo sapiens; details: Homo sapiens, TE-6
Description: SANGER: Inhibition of human TE-6 cell growth in a cell viability assay.

Calu-6 = format: functional, cell-based, Homo sapiens; details: Homo sapiens, Calu-6
Description: SANGER: Inhibition of human Calu-6 cell growth in a cell viability assay.

SJSA-1 = format: functional, cell-based, Homo sapiens; details: Homo sapiens, SJSA-1
Description: SANGER: Inhibition of human SJSA-1 cell growth in a cell viability assay.

LB2518-MEL = format: functional, cell-based; details: Homo sapiens
Description: SANGER: Inhibition of human LB2518-MEL cell growth in a cell viability assay.

MHH-NB-11 = format: functional, cell-based, Homo sapiens; details: Homo sapiens, MHH-NB-11
Description: SANGER: Inhibition of human MHH-NB-11 cell growth in a cell viability assay.

LB996-RCC = format: functional, cell-based, Homo sapiens; details: Homo sapiens, LB996-RCC
Description: SANGER: Inhibition of human LB996-RCC cell growth in a cell viability assay.

TGW = format: functional, cell-based, Homo sapiens; details: Homo sapiens, TGW
Description: SANGER: Inhibition of human TGW cell growth in a cell viability assay.

LXF-289 cell line = format: functional, cell-based; details: Homo sapiens
Description: SANGER: Inhibition of human LXF-289 cell growth in a cell viability assay.

DB = format: functional, cell-based, Homo sapiens; details: Homo sapiens, DB
Description: SANGER: Inhibition of human DB cell growth in a cell viability assay.

NMC-G1 = format: functional, cell-based, Homo sapiens; details: Homo sapiens, NMC-G1
Description: SANGER: Inhibition of human NMC-G1 cell growth in a cell viability assay.

CTB-1 = format: functional, cell-based, Homo sapiens; details: Homo sapiens, CTB-1
Description: SANGER: Inhibition of human CTB-1 cell growth in a cell viability assay.

ES6 = format: functional, cell-based; details: Homo sapiens
Description: SANGER: Inhibition of human ES6 cell growth in a cell viability assay.

D-502MG = format: functional, cell-based, Homo sapiens; details: Homo sapiens, D-502MG
Description: SANGER: Inhibition of human D-502MG cell growth in a cell viability assay.

AM-38 = format: functional, cell-based, Homo sapiens; details: Homo sapiens, AM-38
Description: SANGER: Inhibition of human AM-38 cell growth in a cell viability assay.

NTERA-2-cl-D1 = format: functional, cell-based, Homo sapiens; details: Homo sapiens, NTERA-2-cl-D1
Description: SANGER: Inhibition of human NTERA-S-cl-D1 cell growth in a cell viability assay.

EW-13 = format: functional, cell-based, Homo sapiens; details: Homo sapiens, EW-13; read-out: IC50
Description: SANGER: Inhibition of human EW-13 cell growth in a cell viability assay.

NB69 = format: functional, cell-based, Homo sapiens; details: Homo sapiens, NB69
Description: SANGER: Inhibition of human NB69 cell growth in a cell viability assay.

TE-9 = format: functional, cell-based, Homo sapiens; details: Homo sapiens, TE-9
Description: SANGER: Inhibition of human TE-9 cell growth in a cell viability assay.

ES8 = format: functional, cell-based, Homo sapiens; details: Homo sapiens, ES8
Description: SANGER: Inhibition of human ES8 cell growth in a cell viability assay.

NCI-H82 = format: functional, cell-based, Homo sapiens; details: Homo sapiens, NCI-H82
Description: SANGER: Inhibition of human NCI-H82 cell growth in a cell viability assay.

NCI-H209 = format: functional, cell-based, Homo sapiens; details: Homo sapiens, NCI-H209
Description: SANGER: Inhibition of human NCI-H209 cell growth in a cell viability assay.

DEL = format: functional, cell-based, Homo sapiens; details: Homo sapiens, DEL
Description: SANGER: Inhibition of human DEL cell growth in a cell viability assay.

LS-123 = format: functional, cell-based, Homo sapiens; details: Homo sapiens, LS-123
Description: SANGER: Inhibition of human LS-123 cell growth in a cell viability assay.

Becker = format: functional, cell-based, Homo sapiens; details: Homo sapiens, Becker
Description: SANGER: Inhibition of human Becker cell growth in a cell viability assay.

SW684 = format: functional, cell-based, Homo sapiens; details: Homo sapiens, SW684; read-out: IC50
Description: SANGER: Inhibition of human SW684 cell growth in a cell viability assay.

SNB-75 = format: functional, cell-based, Homo sapiens; details: Homo sapiens, SNB-75
Description: SANGER: Inhibition of human SNB75 cell growth in a cell viability assay.

LB831-BLC = format: functional, cell-based, Homo sapiens; details: Homo sapiens, LB831-BLC
Description: SANGER: Inhibition of human LB831-BLC cell growth in a cell viability assay.

ES5 = format: functional, cell-based, Homo sapiens; details: Homo sapiens, ES5
Description: SANGER: Inhibition of human ES5 cell growth in a cell viability assay.

GAK = format: functional, cell-based, Homo sapiens; details: Homo sapiens, GAK
Description: SANGER: Inhibition of human GAK cell growth in a cell viability assay.

Ramos-2G6-4C10 = format: functional, cell-based, Homo sapiens; details: Homo sapiens, Ramos-2G6-4C10
Description: SANGER: Inhibition of human Ramos-2G6-4C10 cell growth in a cell viability assay.

TK-10 = format: functional, cell-based, Homo sapiens; details: Homo sapiens, TK-10
Description: SANGER: Inhibition of human TK10 cell growth in a cell viability assay.

IST-MEL1 = format: functional, cell-based, Homo sapiens; details: Homo sapiens, IST-MEL1
Description: SANGER: Inhibition of human IST-MEL1 cell growth in a cell viability assay.

ML-2 = format: functional, cell-based, Homo sapiens; details: Homo sapiens, ML-2
Description: SANGER: Inhibition of human ML-2 cell growth in a cell viability assay.

SHP77 = format: functional, cell-based, Homo sapiens, SHP-77; details: Homo sapiens, SHP77
Description: SANGER: Inhibition of human SHP-77 cell growth in a cell viability assay.

SW982 = format: functional, cell-based; details: Homo sapiens
Description: SANGER: Inhibition of human SW982 cell growth in a cell viability assay.

TE-1 = format: functional, cell-based, Homo sapiens; details: Homo sapiens, TE-1
Description: SANGER: Inhibition of human TE-1 cell growth in a cell viability assay.

HT-144 = format: functional, cell-based, Homo sapiens; details: Homo sapiens, HT-144
Description: SANGER: Inhibition of human HT-144 cell growth in a cell viability assay.

A388 = format: functional, cell-based; details: Homo sapiens
Description: SANGER: Inhibition of human A388 cell growth in a cell viability assay.

MS-1 = format: functional, cell-based, Homo sapiens; details: Homo sapiens, MS-1
Description: SANGER: Inhibition of human MS-1 cell growth in a cell viability assay.

L-428 = format: functional, cell-based, Homo sapiens; details: Homo sapiens, L-428
Description: SANGER: Inhibition of human L-428 cell growth in a cell viability assay.

EM-2 = format: functional, cell-based, Homo sapiens; details: Homo sapiens, EM-2
Description: SANGER: Inhibition of human EM-2 cell growth in a cell viability assay.

MEG-01 = format: functional, cell-based, Homo sapiens; details: Homo sapiens, MEG-01
Description: SANGER: Inhibition of human MEG-01 cell growth in a cell viability assay.

SW 954 = format: functional, cell-based, Homo sapiens; details: Homo sapiens, SW 954
Description: SANGER: Inhibition of human SW954 cell growth in a cell viability assay.

SF-539 = format: functional, cell-based, Homo sapiens; details: Homo sapiens, SF-539
Description: SANGER: Inhibition of human SF539 cell growth in a cell viability assay.

HDLM-2 = format: functional, cell-based, Homo sapiens; details: Homo sapiens, HDLM-2
Description: SANGER: Inhibition of human HDLM-2 cell growth in a cell viability assay.

MOLT-4 = format: functional, cell-based, Homo sapiens; details: Homo sapiens, MOLT-4
Description: SANGER: Inhibition of human MOLT-4 cell growth in a cell viability assay.

A3-KAW = format: functional, cell-based, Homo sapiens; details: Homo sapiens, A3-KAW
Description: SANGER: Inhibition of human A3-KAW cell growth in a cell viability assay.

A704 = format: functional, cell-based; details: Homo sapiens
Description: SANGER: Inhibition of human A704 cell growth in a cell viability assay.

K5 = format: functional, cell-based, Homo sapiens; details: Homo sapiens, K5
Description: SANGER: Inhibition of human K5 cell growth in a cell viability assay.

## NC1(c2ccc(-c3nc4ccn5c(=O)[nH]nc5c4cc3-c3ccccc3)cc2)CCC1 [MK-2206]
NB13
  IC50: > 4 µM
TE-6
  IC50: > 4 µM
Calu-6
  IC50: > 4 µM
SJSA-1
  IC50: > 4 µM
LB2518-MEL
  IC50: > 4 µM
MHH-NB-11
  IC50: > 4 µM
LB996-RCC
  IC50: > 4 µM
TGW
  IC50: > 4 µM
LXF-289 cell line
  IC50: 1.17 µM
DB
  IC50: > 4 µM
NMC-G1
  IC50: > 4 µM
CTB-1
  IC50: 1.29 µM
ES6
  IC50: > 4 µM
D-502MG
  IC50: > 4 µM
AM-38
  IC50: > 4 µM
NTERA-2-cl-D1
  IC50: > 4 µM
EW-13
  IC50: > 4 µM
NB69
  IC50: 2.39 µM
TE-9
  IC50: > 4 µM
ES8
  IC50: 2.49 µM
NCI-H82
  IC50: > 4 µM
NCI-H209
  IC50: > 4 µM
DEL
  IC50: > 4 µM
LS-123
  IC50: > 4 µM
Becker
  IC50: > 4 µM
SW684
  IC50: > 4 µM
SNB-75
  IC50: > 4 µM
LB831-BLC
  IC50: > 4 µM
ES5
  IC50: 0.345 µM
GAK
  IC50: > 4 µM
Ramos-2G6-4C10
  IC50: 1.34 µM
TK-10
  IC50: > 4 µM
IST-MEL1
  IC50: > 4 µM
ML-2
  IC50: > 4 µM
SHP77
  IC50: > 4 µM
SW982
  IC50: > 4 µM
TE-1
  IC50: > 4 µM
HT-144
  IC50: > 4 µM
A388
  IC50: > 4 µM
MS-1
  IC50: > 4 µM
L-428
  IC50: > 4 µM
EM-2
  IC50: 0.979 µM
MEG-01
  IC50: > 4 µM
SW 954
  IC50: > 4 µM
SF-539
  IC50: > 4 µM
HDLM-2
  IC50: > 4 µM
MOLT-4
  IC50: 0.806 µM
A3-KAW
  IC50: > 4 µM
A704
  IC50: > 4 µM

## CN(C)CCOc1ccc(-c2nc(-c3ccncc3)c(-c3ccc4c(c3)CC/C4=N\O)[nH]2)cc1 [SB590885]
NB13
  IC50: > 5 µM
TE-6
  IC50: > 5 µM
Calu-6
  IC50: > 5 µM
SJSA-1
  IC50: > 5 µM
LB2518-MEL
  IC50: > 5 µM
MHH-NB-11
  IC50: > 5 µM
LB996-RCC
  IC50: > 5 µM
TGW
  IC50: > 5 µM
LXF-289 cell line
  IC50: > 5 µM
DB
  IC50: > 5 µM
NMC-G1
  IC50: > 5 µM
CTB-1
  IC50: > 5 µM
ES6
  IC50: > 5 µM
D-502MG
  IC50: > 5 µM
AM-38
  IC50: > 5 µM
NTERA-2-cl-D1
  IC50: > 5 µM
EW-13
  IC50: > 5 µM
NB69
  IC50: > 5 µM
TE-9
  IC50: > 5 µM
ES8
  IC50: > 5 µM
NCI-H82
  IC50: > 5 µM
NCI-H209
  IC50: > 5 µM
DEL
  IC50: > 5 µM
LS-123
  IC50: > 5 µM
Becker
  IC50: > 5 µM
SW684
  IC50: > 5 µM
SNB-75
  IC50: > 5 µM
LB831-BLC
  IC50: > 5 µM
ES5
  IC50: > 5 µM
GAK
  IC50: > 5 µM
Ramos-2G6-4C10
  IC50: > 5 µM
TK-10
  IC50: > 5 µM
IST-MEL1
  IC50: > 5 µM
ML-2
  IC50: > 5 µM
SHP77
  IC50: > 5 µM
SW982
  IC50: > 5 µM
TE-1
  IC50: > 5 µM
HT-144
  IC50: 0.435 µM
A388
  IC50: > 5 µM
MS-1
  IC50: > 5 µM
L-428
  IC50: > 5 µM
EM-2
  IC50: > 5 µM
MEG-01
  IC50: > 5 µM
SW 954
  IC50: > 5 µM
SF-539
  IC50: > 5 µM
HDLM-2
  IC50: > 5 µM
MOLT-4
  IC50: > 5 µM
A3-KAW
  IC50: > 5 µM
A704
  IC50: > 5 µM

## O=C(NCCCNc1nc(Nc2cccc(NC(=O)N3CCCC3)c2)ncc1I)c1cccs1 [BX-795]
NB13
  IC50: 4.02 µM
TE-6
  IC50: > 5 µM
Calu-6
  IC50: > 5 µM
SJSA-1
  IC50: > 5 µM
LB2518-MEL
  IC50: > 5 µM
MHH-NB-11
  IC50: > 5 µM
LB996-RCC
  IC50: 4.51 µM
TGW
  IC50: 4.58 µM
K5
  IC50: > 5 µM
LXF-289 cell line
  IC50: 0.657 µM
DB
  IC50: 2.13 µM
NMC-G1
  IC50: > 5 µM
CTB-1
  IC50: 2.4 µM
ES6
  IC50: > 5 µM
D-502MG
  IC50: > 5 µM
AM-38
  IC50: > 5 µM
NTERA-2-cl-D1
  IC50: 1.08 µM
EW-13
  IC50: > 5 µM
NB69
  IC50: 1.16 µM
TE-9
  IC50: > 5 µM
ES8
  IC50: 0.843 µM
NCI-H82
  IC50: > 5 µM
DEL
  IC50: 2.76 µM
LS-123
  IC50: > 5 µM
Becker
  IC50: 3.01 µM
SW684
  IC50: > 5 µM
SNB-75
  IC50: > 5 µM
LB831-BLC
  IC50: > 5 µM
ES5
  IC50: 1.19 µM
GAK
  IC50: > 5 µM
Ramos-2G6-4C10
  IC50: 2.24 µM
TK-10
  IC50: > 5 µM
IST-MEL1
  IC50: > 5 µM
SHP77
  IC50: > 5 µM
SW982
  IC50: 0.951 µM
TE-1
  IC50: > 5 µM
HT-144
  IC50: > 5 µM
A388
  IC50: > 5 µM
MS-1
  IC50: > 5 µM
L-428
  IC50: > 5 µM
EM-2
  IC50: 2.35 µM
MEG-01
  IC50: > 5 µM
SW 954
  IC50: 3.44 µM
SF-539
  IC50: 3.74 µM
HDLM-2
  IC50: > 5 µM
MOLT-4
  IC50: 1.03 µM
A3-KAW
  IC50: 0.731 µM
A704
  IC50: > 5 µM
